Patent US20060276468A1, “Wood preservative formulations comprising Imazalil” (priority 2005, published 2006)

Test system: decay organisms
Experiment: soil contact veneer exposure test: dip-treated Scots pine sapwood veneers half buried in damp compost, pulled by hand weekly until failure
Conditions: for half life, Low level with 0.8% Imazalil: 0.8% fungicide plus 0.8% imazalil, IMS (alcohol); for average time for failure to occur (half life), combination with imazalil sulfate / estimated expected average time for failure, combination with imazalil sulfate / average time for failure to occur (half life): Example 1; for average time for failure to occur (half life), combination with imazalil sulfate: 0.3% dichlorophen, 0.1% triclosan, 0.4% fenarimol or 0.4% PHMB, each plus 0.2% imazalil sulfate; for estimated expected average time for failure, combination with imazalil sulfate: midway between the two single biocides; for average time for failure to occur (half life): biocide alone: 0.6% dichlorophen, 0.2% triclosan, 0.8% fenarimol, 0.8% PHMB, 0.4% imazalil sulfate, 6 veneers; for synergy of the combination with imazalil sulfate: actual versus expected average time to failure; for estimated expected half life for 1% fungicide plus 1% Imazalil sulfate / Half life for 1% fungicide plus 1% Imazalil sulfate / Half life for fungicide at 2% active ingredient (ai): Example 3; for half life, Low level with 0.8% Imazalil sulfate: 0.8% fungicide plus 0.8% imazalil sulfate, IMS
Source text: The present invention also provides a simple exposure test for evaluating the wood preserving abilities of candidate ingredients or compositions. This exposure test is based on the premise that small dimension timber test specimens tend to fail more quickly than larger ones in soil contact situations.
It is preferable that the thickness of the veneers be greater than 0.1 mm, as veneers of lesser thickness can often be pulled apart by hand without undergoing exposure to decay organisms. Veneers which are thicker than 0.4 may take an excessive amount of time to fail the exposure test. In one embodiment, the thickness of the veneers is about 0.2 mm and the wood is the sapwood of the Scots pine (Pinus sylvestris). Other woods and thicknesses can be used. […] An example of convenient width and length dimensions are 15×50 mm. However, width and length are not critical provided they are kept consistent within a test, although very large or small length or width dimensions may be difficult to handle.
Accordingly, the test of the present invention comprises testing the integrity of a veneer after exposure to a decay-inducing environment. In one embodiment, this environment is damp compost in which decay organisms are present and water is present at just above the water holding capacity of the compost. If desired, other media can be used, and the test can be conducted at water contents which are below, at, or above the water-holding capacity of the media.
In general, the integrity of the veneer is inversely related to the length of exposure to the decay promoting environment. The integrity of the veneer can be tested by applying a force to the veneer and noting whether or not the veneer breaks. Thus, if wood preservative agents are applied to the veneers, these veneers would be expected to withstand longer exposure to the environment without breaking compared to control veneers without breaking.
The force applied to the veneers is preferably a force which pulls the two ends in opposite directions. The force can be applied by the use of an instrument or manually. If there is significant decay the veneer will break, generally near the junction between the portion submerged in the decay accelerating medium and the portion exposed to air. If the force is applied manually, it is preferable that the same individual conduct the test at the various exposure time points.
The veneers were cut such that both late wood and early wood were present in each veneer. The following biocides were tested: imazalil sulfate, dichlorophen, fenarimol, triclosan, and PHMB. To allow the mixing together of the five selected biocides in any combination the biocides were formulated such that they could be mixed together (all the percentages are mass/mass):
Test solutions were prepared and sets of veneers were dip treated such that there were 6 replicate veneers for each treatment under investigation. Additionally six veneers were dip treated in deionised water to act as water controls. […] Plastic containers (approximately 350×220 mm by at least 60 mm high) were part filled with John Innes Number 2 potting compost at a little above its water holding capacity. The veneers for this particular test were placed in six rows within a container such that approximately half the veneer was below the compost and half above. The veneers were placed in the compost such than those given a particular treatment were distributed throughout the container and were not grouped together. The containers, compost and veneers were weighed then incubated at about 30° C. and near 100% relative humidity in an incubator. Each week during the test the assembly was reweighed and deionised water added to bring it back to its original mass. After 3 weeks each veneer was examined in turn. It was held between the fore finger and thumb at each end and pulled to see if it could be broken. If it could be pulled apart a failure was recorded.

[1] = Example 5, additive expectation
[2] = Example 5, solutions in acetone
[3] = Example 10, additive expectation
[4] = Example 10, solutions in IMS (alcohol)
[5] = unnumbered table, additive expectation
[6] = unnumbered table, solutions in IMS
[7] = Example 7, solutions in acetone
[8] = Example 9, 1.4% BBIT or 0.4% imazalil sulfate alone, formulations which can be mixed together

CCCC1COC(Cn2cncn2)(c2ccc(Cl)cc2Cl)O1 (centres unmarked) [Propiconazole, 1-[[2-(2,4-dichlorophenyl)-4-propyl-1,3-dioxolan-2-yl]=methyl]-1H-1,2,4-triazole]
estimated expected half life for 1% fungicide plus 1% Imazalil [1]: {6.59 weeks} | Half life for 1% fungicide plus 1% Imazalil [2]: 7.33 weeks | Half life for fungicide at 2% ai [2]: 5.50 weeks | half life, Low level with 0.8% Imazalil (Example 10): 6.17 weeks | estimated expected half life, Low level with 0.8% Imazalil [3]: (5.84 weeks) | half life, High level (1.6%) [4]: 5.50 weeks | half life, Low level (0.8%) [4]: 5.33 weeks

Poly(hexamethylenebiguanide)hydrochloride [PHMB]
average time for failure to occur (half life), combination with imazalil sulfate: 5.17 weeks | estimated expected average time for failure, combination with imazalil sulfate (additive expectation): (5.00) weeks | average time for failure to occur (half life): 4.83 weeks | synergy of the combination with imazalil sulfate: positive synergy

alkyl dimethyl benzyl ammonium chloride [BAC]
estimated expected half life for 1% fungicide plus 1% Imazalil sulfate (additive expectation): 5.59 weeks | Half life for 1% fungicide plus 1% Imazalil sulfate (solutions in IMS (alcohol)): 6.17 weeks | Half life for fungicide at 2% active ingredient (ai) (solutions in IMS (alcohol)): 5.17 weeks | half life, Low level with 0.8% Imazalil sulfate (unnumbered table): 6.00 weeks | expected half life, Low level with 0.8% Imazalil sulfate [5]: {592 weeks} | half life, High level (1.6%) [6]: 4.83 weeks | half life, Low level (0.8%) [6]: 4.67 weeks

Oc1cc(Cl)ccc1Oc1ccc(Cl)cc1Cl [Trichlosan, 5-chloro-2-(2,4-dichlorophenoxy)phenol]
average time for failure to occur (half life), combination with imazalil sulfate: 5.50 weeks | estimated expected average time for failure, combination with imazalil sulfate (additive expectation): (4.75) weeks | average time for failure to occur (half life): ~4.33 weeks | synergy of the combination with imazalil sulfate: positive synergy

CC(C1CC1)C(O)(Cn1cncn1)c1ccc(Cl)cc1 (stereo not drawn) [Cyproconazole, α-(4-chlorophenyl)-α-(1-cyclopropylethyl)-=1H-1,2,4-triazol-1-ethanol]
estimated expected half life, Low level (0.8%) plus 0.8% Imazalil (Example 7, additive expectation): {5.42 weeks} | half life, High level (1.6%) [7]: 4.67 weeks | half life, Low level (0.8%) [7]: 4.17 weeks | half life, Low level (0.8%) plus 0.8% Imazalil [7]: 6.17 weeks | half life, Low level with 0.8% Imazalil (Example 10): 6.17 weeks | estimated expected half life, Low level with 0.8% Imazalil [3]: (5.42 weeks) | half life, High level (1.6%) [4]: 4.67 weeks | half life, Low level (0.8%) [4]: 4.17 weeks

CCCCn1sc2ccccc2c1=O [BBIT, N-butyl-1,2-benzisothiazolin-3-one]
half life, With Imazalil sulfate (Example 9, 0.7% BBIT plus 0.2% imazalil sulfate): 7.33 weeks | half life, No addition [8]: 8.33 weeks | estimated expected half life, With Imazalil sulfate (Example 9, additive expectation): {6.92 weeks}

CCCCCCCCCC[N+](C)(C)CCCCCCCCCC.[Cl-] [DDAC, didecyl dimethyl ammonium chloride]
half life, Low level with 0.8% Imazalil sulfate: 5.50 weeks | average time for failure to occur, quat with Imazalil sulfate (Example 2, 0.18% active quat plus 0.30% imazalil sulfate (Table 3; text b187 says 0.2%)): 5.50 weeks | average time for failure to occur, Quat Only (Example 2, 0.36% active quat in deionised water): 4.17 weeks | estimated expected half life for 1% fungicide plus 1% Imazalil sulfate (additive expectation): 5.50 weeks | Half life for 1% fungicide plus 1% Imazalil sulfate (solutions in IMS (alcohol)): 6.50 weeks | Half life for fungicide at 2% active ingredient (ai) (solutions in IMS (alcohol)): 5.00 weeks | synergy of the combination with imazalil sulfate: evidence of synergy | expected half life, Low level with 0.8% Imazalil sulfate (additive expectation): {5.58 weeks} | half life, High level (1.6%) (solutions in IMS): 5.33 weeks | half life, Low level (0.8%) (solutions in IMS): 5.00 weeks

OB(O)O [Boric acid]
half life, Low level with 0.8% Imazalil sulfate (unnumbered table): 5.33 weeks | expected half life, Low level with 0.8% Imazalil sulfate [5]: {5.57 weeks} | half life, High level (1.6%) [6]: 4.50 weeks | half life, Low level (0.8%) [6]: 3.83 weeks

CC(Cc1ccc(C(C)(C)C)cc1)CN1C[C@@H](C)O[C@@H](C)C1 (mixture of isomers) [Fenpropimorph, (±)-cis-4-[3-(4-tert-butylphenyl)-2-methylpropyl]-2,6-dimethyl=morpholine]
estimated expected half life for 1% fungicide plus 1% Imazalil sulfate (additive expectation): 5.34 weeks | Half life for 1% fungicide plus 1% Imazalil sulfate (solutions in IMS (alcohol)): 5.67 weeks | Half life for fungicide at 2% active ingredient (ai) (solutions in IMS (alcohol)): 4.67 weeks | half life, Low level with 0.8% Imazalil (Example 10): 5.83 weeks | estimated expected half life, Low level with 0.8% Imazalil [3]: (5.17 weeks) | half life, High level (1.6%) [4]: 4.17 weeks | half life, Low level (0.8%) [4]: 3.67 weeks

1H-imidazole,1-(2-(2,4-dichlorophenyl)-2-(2-propenyloxy)ethyl)-, sulfate [Imazalil sulfate]
average time for failure to occur (half life): 5.17 weeks | average time for failure to occur, No Quat (Example 2, 0.60% imazalil sulfate alone (Table 3; text b187 says 0.4%)): 5.67 weeks | Half life for fungicide at 2% active ingredient (ai) (solutions in IMS (alcohol)): 6.00 weeks | Half life for fungicide at 2% ai (Example 4, Table 8 title: solutions in acetone (Table 7: deionised water)): 7.17 weeks | half life, No addition [8]: 5.50 weeks | Calculated half life (Example 12, Fluid 1, 0.25% imazalil sulfate in deionized water): 5.00 weeks | Calculated half life (Example 12, Fluid 2, 0.50% imazalil sulfate in deionized water): 6.50 weeks | Calculated half life (Example 12, Fluid 3, 1.00% imazalil sulfate in deionized water): 6.83 weeks | Calculated half life (Example 12, Fluid 4, 1.50% imazalil sulfate in deionized water): 8.17 weeks | half life, No addition (Example 14, 0.6% dichlorophen or 0.4% imazalil sulfate alone): 5.2 weeks | half life, No addition (Example 15, 2.0% alone, solutions in IMS (alcohol)): 7.83 weeks | Calculated half life (Example 16, 0.8% alone, solutions in IMS (alcohol)): 7.00 weeks | Calculated half life (Example 16, 1.6% alone, solutions in IMS (alcohol)): 8.00 weeks | half life, High level (1.6%) (solutions in IMS): 5.83 weeks | half life, Low level (0.8%) (solutions in IMS): 5.00 weeks | half life, High level (1.6%) [6]: 7.00 weeks | half life, Low level (0.8%) [6]: 5.67 weeks

N#Cc1c(Cl)c(Cl)c(Cl)c(C#N)c1Cl [Chlorothalonil, tetrachloroisophthalonitrile]
estimated expected half life for 1% fungicide plus 1% Imazalil [1]: {9.92 weeks} | Half life for 1% fungicide plus 1% Imazalil [2]: 10.67 weeks | Half life for fungicide at 2% ai [2]: 12.17 weeks

CCCCCCCCn1sc(Cl)c(Cl)c1=O [RH 287, 4,5-dichloro-2-n-octyl-3(2H)-isothiazolone]
estimated expected half life for 1% fungicide plus 1% Imazalil [1]: {15.09 weeks} | Half life for 1% fungicide plus 1% Imazalil [2]: 19.33 weeks | Half life for fungicide at 2% ai [2]: 22.50 weeks

COC(=O)N(OC)c1ccccc1COc1ccn(-c2ccc(Cl)cc2)n1 [Pyraclostrobin, methyl N-{2-[1-(4-chlorophenyl)-1H-pyrazol-3-yloxymethyl]phenyl}(N-methoxy)carbamate]
estimated expected half life for 1% fungicide plus 1% Imazalil sulfate (additive expectation): 6.09 weeks | Half life for 1% fungicide plus 1% Imazalil sulfate (solutions in IMS (alcohol)): 6.50 weeks | Half life for fungicide at 2% active ingredient (ai) (solutions in IMS (alcohol)): 6.17 weeks

CCCCCCCCCCCCCN1CC(C)OC(C)C1 (centres unmarked) [Tridemorph, 4-alkyl-2,6-dimethylmorpholine]
estimated expected half life for 1% fungicide plus 1% Imazalil sulfate (additive expectation): 5.42 weeks | Half life for 1% fungicide plus 1% Imazalil sulfate (solutions in IMS (alcohol)): 6.33 weeks | Half life for fungicide at 2% active ingredient (ai) (solutions in IMS (alcohol)): 4.83 weeks
